Settings: uncapped samples, 40° C./75% RH stability chamber, at least 3 weeks
Experimental: PXRD diffractograms were recorded on a Bruker D8 Discover powder X-ray diffractometer (Bruker AXS LLC, Karlsruhe, Germany). The generator was a Incoatec Microfocus Source (IμS) Cu tube (λ=1.54060 Å) with a voltage of 50 kV and current of 1.00 mA, using a divergence slit of 0.1 mm and collimator of 2.0 mm. For each sample, two frames were collected using a still scan with a PILATUS3 R 100K-A detector at the distance of 294.2 mm from the sample. Raw data were evaluated using the program DIFFRAC.EVA (Bruker AXS LLC, Karlsruhe, Germany).

| Compound | change in the crystalline form by PXRD (form stability) |
| --- | --- |
| CCOc1ccccc1OCC1CNCCO1.CCOc1ccccc1OCC1CNCCO1.O=C(O)C(O)C(O)C(=O)O (racemic) [viloxazine hemi-DL-tartrate Form APO-I, viloxazine hemi-DL-tartrate] | no change in the crystalline form occurred |
| CCOc1ccccc1OCC1CNCCO1.O=S(=O)(O)c1ccc2ccccc2c1 (stereo not drawn) [viloxazine naphthalene-2-sulfonate] | no change in the crystalline form occurred |
| viloxazine fumarate [viloxazine fumarate Form APO-I] | no change in the crystalline form occurred |

From US20240116884A1, “Salts of Viloxazine” (Apotex Inc., priority 2022, published 2024)
